{
  "source": "patent US20100239685A1",
  "about": "“COMPOUND FOR TREATMENT OR PREVENTION OF PROSTATE-RELATED DISEASES AND PHARMACEUTICAL COMPOSITION OF COLON DELIVERY SYSTEM CONTAINING THE SAME” (priority 2006, published 2010)",
  "key": {"[1]": {"details": "cited from earlier work"}, "[2]": {"test": "Intestinal absorption, single-pass intestinal perfusion", "assay_type": "in vivo, rats", "description": "In order to determine intestinal absorption (%) of a naphthoquinone-based compound, a single-pass intestinal perfusion technique was carried out in internal organs of rats, including jejunum, ileum and large intestine. The steady-state intestinal effective permeability (Peff) can be expressed according to the following equation. Peff=[−Qin·ln (Cout/Cin)]/A Peff: Steady-state intestinal effective permeability (cm/s) Qin: Perfusion flow rate (0.4 mL/min) Cin, Cout: Inlet and fluid-transport-corrected outlet solution concentrations A: Mass transfer surface area within intestinal segment (2πrL), r, L: Radius and length of intestinal segment The radius (r) and length (L) of the jejunum, ileum and large intestine used in experiments are as follows: (r: jejunum, 0.21 cm; ileum, 0.22 cm; large intestine, 0.23 cm, and L: 10 cm) The steady-state was confirmed by the ratio of the outlet to inlet concentrations (Cout/Cin) versus time. The steady-state is established when the Cout/Cin ratio of the naphthoquinone-based compound is maintained at a constant value (n=3, error bars with respect to S.D.). Residual amounts of the naphthoquinone-based compound in the above three intestinal organs were measured at different time points. The outlet steady-state concentration of the compound under perfusion was calculated. The results thus obtained are given in Table 4 and FIG. 2, respectively. The effective permeability was measured at 4 points of each intestinal tissue."}, "[3]": {"test": "Determination of partition coefficients (octanol / phosphate buffer pH 7.4)", "assay_type": "physicochemical", "details": "sample 200 μg/mL; octanol/water; replicates 1-3", "description": "Octanol and phosphate buffer (pH 7.4) were saturated with a counter-solvent for 24 hours or more. A given amount of a naphthoquinone-based compound (compound 1 of Table 1 below) was dissolved in the thus-saturated octanol, mixed with triple-distilled water and stirred using a magnetic stirrer at 200 rpm for 13 hours or more. Samples were taken, filtered through a 0.45 μm RC Membrane filter and diluted with methanol. The diluted sample materials were analyzed by HPLC. A partition coefficient versus an amount of the compound 1 was determined."}},
  "note": "Several values for one entry are separate records, joined by “and”; a condition that tells them apart may be missing. Identical values can stand only once.",
  "data": [
    {"smiles": "C[C@H]1COC2=C1C(=O)C(=O)c1c2ccc2c1CCCC2(C)C", "note": "[cryptotanshinone]", "values": [
      {"measurement": "absorption rate via oral administration", "setting": "[1]", "value": 2.05, "unit": "%"}
    ]},
    {"smiles": "CC1(C)CCC2=C(O1)c1ccccc1C(=O)C2=O", "note": "[naphthoquinone-based compound]", "values": [
      {"measurement": "Peff", "setting": "[2]; Duodenum", "value": "0.79 ± 0.33 × 10^−5 (cm/s)"},
      {"measurement": "Peff", "setting": "[2]; Ileum", "value": "5.15 ± 1.49 × 10^−5 (cm/s)"},
      {"measurement": "Peff", "setting": "[2]; Jejunum", "value": "2.37 ± 1.17 × 10^−5 (cm/s)"},
      {"measurement": "Peff", "setting": "[2]; Large intestine", "value": "7.82 ± 0.93 × 10^−5 (cm/s)"}
    ]},
    {"smiles": "CC1(C)CCC2=C(O1)c1ccccc1C(=O)C2=O", "note": "[Compound 1]", "values": [
      {"measurement": "Partition Coefficient", "setting": "[3]", "value": "2.40 and 2.20"}
    ]}
  ]
}
